Experimental data: US20210401807A1, “NEW COMPOSITION COMPRISING AMORPHOUS NANOPOROUS SILICA PARTICLES” (VICORE PHARMA AB, priority 2018, published 2021)
Structures can show the parent of a compound that is named as a salt.

Assay: Dissolution kinetics in simulated lung fluid (SLF), USP 2 dissolution apparatus
Assay type: physicochemical
Settings: SLF pH 7.4, 37° C.
Method: The dissolution kinetics of the C21-loaded silica described in Example 5 were characterized in SLF (pH 7.4; Gamble's solution: made up with the salts NaCl, NaHCO3, KCl, MgCl2, CaCl2, Na2SO4, sodium citrate dihydrate, sodium acetate, NaH2PO4 (all from Sigma-Aldrich)) at 37° C. (Reference: Simulated Biological Fluids with Possible Application in Dissolution Testing, Marques et al,. Dissolution technologies August 2011, p15-28) using a USP 2 dissolution apparatus with stirring speed 75 rpm. Free, unloaded C21-sodium salt was used as control. Concentration of drug at set times after release was measured by a UV/vis spectrometer (Cecil 3021) at 267 nm.
The dose of C21 was calculated as 25 mg of C21 in 500 mL of SLF. […] The loaded C21 is fully released and dissolved from the silica particles in around 10 minutes.

CCCCOC(=O)NS(=O)(=O)c1sc(CC(C)C)cc1-c1ccc(Cn2ccnc2)cc1 [C21 sodium salt, N-butyloxycarbonyl-3-(4-imidazol-1-ylmethylphenyl)-5-iso-butylthio-phene-2-sulfonamide]
solubility in SLF conditions: readily soluble | released in the first 2 minutes (75 rpm, 25 mg of C21 in 500 mL): 96%
